Test results reported in US6184246A, “Inhibition of cytokine production by polymethoxylated flavones” (priority 1999, dated 2001).
“Also recorded” adds a separate entry of the source. Where two headings read alike, the source gives them in different places.

Tests used:
intracellular cAMP = test: Cellular cAMP in human monocytes (EIA); format: cell-based; conditions: 100 μM, 30 min; for intracellular cAMP level: media alone 2.7±0.9
Method: To test flavones for the ability to cause an increase in cellular cAMP, monocytes were purified from PBMC by centrifugal elutriation. Monocytes were resuspended to 5×10^6 /mL in complete medium and 2 mL cell suspension were dispensed into FALCON 17×100 mm polypropylene culture tubes (Becton Dickinson). The cells were precultured 2 h at 37° C. and 5% CO2, and then cultured an additional 30 min following adjusting culture media to contain 100 μM of the flavone of interest or 200 μM IBMX (3-isobutyl-1-methylxanthine). Cells were then collected by centrifugation, lysed in 300 μL of ice cold aqueous solution containing 10 mM HEPES (pH 7.6) and 1% NP40. The lysates were applied to 100 mg columns of Amprep SAX resin (Amersham). The columns were then rinsed with 1 mL of methanol and the cAMP was eluted in 600 μL of methanol containing 0.01 M HCl. The eluates were chilled on dry ice and dried under vacuum. The Amersham Biotrak cAMP EIA assay was used to measure cAMP content of residues resuspended in 400 μL of assay buffer.

TNFα mRNA = TNFα mRNA level by RT-PCR in LPS-stimulated monocytes; format: cell-based, human; conditions: graded concentrations, 20 ng/mL LPS, 90 min, GAPDH internal standard
Method: Primary elutriated human monocytes were cultured in the presence of graded concentrations of HMF for 30 min. The monocyte cultures were then adjusted to contain 20 ng/mL LPS. At 90 min of culture, monocytes were harvested by centrifugation, and RNA was isolated from the cell pellet. Relative levels of TNFα and the constitutively expressed glyceraldehyde 3-phosphate dehydrogenase (GAPDH) mRNA were determined by RT-PCR as described below.
Analysis of specific mRNA levels by reverse transcriptase-polymerase chain reaction (RT-PCR): Monocytes were purified from PBMC by centrifugal elutriation. Monocytes were resuspended to 5×10^6 /mL in complete medium and 2 mL of cell suspension were dispensed into FALCON 17×100 mm polypropylene culture tubes (Becton Dickinson). Cultures were adjusted to contain graded concentrations of HMF and cultured 30 min at 37° C. and 5% CO2. Cultures were then adjusted to contain 20 ng/mL LPS for an additional 90 min. […] Relative levels of TNFα and IL-1β mRNA were then measured by RT-PCR as previously described (Manthey, C. L., J. Leuk Biol. 1998, 64: 409-416). […] Radiolabeled products were resolved by agarose gel electrophoresis and quantified using a PhosphorImager (Molecular Dynamics, Sunnyvale, Calif.). […]

IL-6 = IL-6 production by LPS-stimulated human monocytes (ELISA); format: cell-based
Method: (§1) Adherent purified human monocytes were cultured in the presence of graded concentrations of heptamethoxyflavone for 30 min. The monocyte cultures were then adjusted to contain 20 ng/mL LPS. After 14 h of culture, the cytokines TNFα, IL-6, IL-8, MIP-1α, and IL-10 were assayed in the culture supernatants and IL-1β was assayed in the cell lysates using specific ELISA assays as described below. Values expressed as the percent of cytokine produced in flavone-free cultures are the means and standard errors determined using monocytes isolated from three independent donors.
(§2) Isolation of human peripheral blood monocytes: Peripheral blood mononuclear cells (PBMCs) were isolated from residual source leukocytes (Bonfils Blood Center, CO) by density gradient centrifugation using Ficoll-Paque Plus (Pharmacia, Sweden). Monocytes were purified further by plastic adherence (see below) or by centrifugal elutriation as described previously (Manthey, C. L., et al., J. Leuk Biol., 64: 409-416 (1998)).
(§3) IL-1β was measured in cell lysates by ELISA.

MIP-1α = MIP-1α production by LPS-stimulated human monocytes (ELISA); format: cell-based
Method: as §1, §2, §3

IL-8 = IL-8 production by LPS-stimulated human monocytes (ELISA); format: cell-based
Method: as §1, §2, §3

IL-1β mRNA = IL-1β mRNA level by RT-PCR in LPS-stimulated monocytes; format: cell-based, human; conditions: data not shown
Method: Analysis of specific mRNA levels by reverse transcriptase-polymerase chain reaction (RT-PCR): Monocytes were purified from PBMC by centrifugal elutriation. Monocytes were resuspended to 5×10^6 /mL in complete medium and 2 mL of cell suspension were dispensed into FALCON 17×100 mm polypropylene culture tubes (Becton Dickinson). Cultures were adjusted to contain graded concentrations of HMF and cultured 30 min at 37° C. and 5% CO2. Cultures were then adjusted to contain 20 ng/mL LPS for an additional 90 min. Culture media was then removed and monocytes were lysed in RNAzol (Teltext Inc., Friendswood, Tex.) and total RNA was isolated according to the manufacturer's instructions. Relative levels of TNFα and IL-1β mRNA were then measured by RT-PCR as previously described (Manthey, C. L., J. Leuk Biol. 1998, 64: 409-416). PCR was carried out in the presence of [α-^32 P]dCTP. Radiolabeled products were resolved by agarose gel electrophoresis and quantified using a PhosphorImager (Molecular Dynamics, Sunnyvale, Calif.). For these reactions, the following primer sets were used:
IL-1β, (5'): GACACATGGGATAACGAGGCT, (3'): ACGCAGGACAGGTACAGATTC.

IL-10 = IL-10 production by LPS-stimulated human monocytes (ELISA); format: cell-based
Method: as §1, §2, §3

[1] = system: type-IV phosphodiesterase semi-purified from U937 cells; test: Phosphodiesterase cAMP SPA enzyme assay; format: biochemical; conditions: hydrolysis of cAMP; read-out: concentration inhibiting phosphodiesterase activity 50%
Method: PDE semipurified from U937 monocytic cells was evaluated for the ability to catalyze the hydrolysis of cAMP in the presence of graded concentrations of flavone, myricetin, and HMF as described below. The rates are plotted as percent of control-reactions, where no flavonoids were present. Testing flavones as phosphodiesterase inhibitors and inducers of cellular cyclic adenosine monophosphate (cAMP): The Phosphodiesterase cAMP SPA Enzyme Assay (Amersham, Arlington Heights, Ill.) was used to test the ability of flavones to inhibit cAMP hydrolysis catalyzed by phosphodiesterase. The phosphodiesterase used in this study was semi-purified from U937 cells, and was determined to be mostly the type-IV isoform based on sensitivity to selected isoform inhibitors (Trophy, T. J., J. Pharmacol. Experimental Therapeutics, 1195-1205 (1992)).

TNFα [2] = test: TNFα production by LPS-stimulated human monocytes (ELISA); format: cell-based; conditions: for inhibition of TNFα production (in words): LPS-stimulated human monocytes; for IC50: Monocyte, human monocytes, 30 min preculture with compound, LPS, 14 h, 30% FCS, read-out: IC50 for inhibition of TNFα production
Method: Isolation of human peripheral blood monocytes: Peripheral blood mononuclear cells (PBMCs) were isolated from residual source leukocytes (Bonfils Blood Center, CO) by density gradient centrifugation using Ficoll-Paque Plus (Pharmacia, Sweden).
(§4) To measure the impact of the flavones on cytokine production, PBMCs were resuspended to 4×10^6 /mL in complete medium, i.e., Dulbecco's Modified Eagle Medium containing 30% FCS, 2 mM glutamine, 100 U/mL Penicillin-G, and 100 μg/mL streptomycin. […] Nonadherent cells (lymphocytes) were separated from the plastic adherent cells (monocytes) by washing the wells twice with 200 μL of medium. The monocytes were cultured an additional 30 min in 100 μL of complete medium containing graded concentrations of the compound of interest and the cultures were then adjusted to contain […] LPS to stimulate cytokine production. Culture supernatants were harvested 14 h later, and cells were lysed by addition of 50 μL of Dulbecco's phosphate buffered saline containing 1% NP40. Culture supernatants were evaluated for TNFα, IL-1β, IL-6, IL-8, IL-10, and MIP-1α content using specific enzyme-linked immunosorbent assays (ELISA) purchased from R&D Systems. IL-1β was measured in cell lysates by ELISA. Lactate dehydrogenase (LDH) content of cell lysates was measured to determine compound effects on cell viability: To 50 μL of lysate were added 200 μL of 50 mM sodium pyrophosphate buffer (pH 8.9) containing 50 mM lactic acid and 4 mg/mL β-nicotinamide adenine dinucleotide (Sigma); rates of reduction of nicotinamide adenine dinucleotide were measured at room temperature at 340 nm.

IL-1β = IL-1β production by LPS-stimulated human monocytes (ELISA, cell lysates); format: cell-based
Method: as §1, §2, §3

human monocytes = test: Cytotoxicity by LDH content of monocyte lysates
Method: as §4

TNFα [3] = conditions: mice, cited from earlier work
[4] = cytokine suppression profile, HMF compared against IBMX (Table 2)

COc1ccc(-c2oc3c(OC)c(OC)c(OC)c(OC)c3c(=O)c2OC)cc1OC [HMF, 3,5,6,7,8,3',4'-heptamethoxyflavone]
increase of monocyte cAMP levels over media alone (in words) (intracellular cAMP): at least a doubling
intracellular cAMP level (intracellular cAMP): 5.7±1.8 pmol/10^7 cells
suppression of lipopolysaccharide-induced TNFα mRNA expression (TNFα mRNA): suppress; also recorded: selectively blocks
inhibition of lipopolysaccharide-induced expression of IL-6 (IL-6; 100 μM): no inhibition
activation at 100 µM (IL-6; Homo sapiens, Monocyte, 14 h, 100 μM, read-out: increase of IL-6 expression): 30%
suppression of IL-6 production (IL-6; [4]): neither suppressed
inhibition of MIP-1α production (in words) (MIP-1α; LPS-stimulated human monocytes): potent inhibitor
IC50 (MIP-1α; Monocyte, monocytes from three independent human donors, LPS, 14 h, read-out: IC50 for inhibition of MIP-1α): 7.3 ± 0.7 µM
inhibition of lipopolysaccharide-induced expression of IL-8 (IL-8; 100 μM): no inhibition
suppression of IL-8 production (IL-8; [4]): neither suppressed
induction of IL-1β mRNA (IL-1β mRNA): not effected
inhibition of IL-10 production (in words) (IL-10; LPS-stimulated human monocytes): potent inhibitor; also recorded: inhibition
IC50 (IL-10; Monocyte, monocytes from three independent human donors, LPS, 14 h, read-out: IC50 for inhibition of IL-10): 12.3 ± 3.5 µM
IC50 [1]: 2 µM
inhibition of TNFα production (in words) (TNFα [2]): potent inhibitor
IC50 (TNFα [2]): 5 µM
inhibition of lipopolysaccharide-induced expression of IL-1β (IL-1β; 100 μM): no inhibition
suppression of IL-1β production (IL-1β; [4]): neither suppressed

O=c1c(O)c(-c2cc(O)c(O)c(O)c2)oc2cc(O)cc(O)c12 [myricetin]
cytotoxicity towards cultured human monocytes (depletion of cellular LDH activity) (human monocytes; human monocytes, LDH content of cell lysates): lacked activity and any associated cytotoxicity
increase of monocyte cAMP levels over media alone (in words) (intracellular cAMP): much less
intracellular cAMP level (intracellular cAMP): 3.7±1.0 pmol/10^7 cells
IC50 [1]: 16 µM
inhibition of TNFα production (in words) (TNFα [2]): lacked activity; also recorded: much less active

C[C@@H]1O[C@@H](O[C@H]2[C@H](Oc3cc(O)c4c(c3)O[C@H](c3ccc(O)cc3)CC4=O)O[C@H](CO)[C@@H](O)[C@@H]2O)[C@H](O)[C@H](O)[C@H]1O [naringin]
cytotoxicity towards cultured human monocytes (depletion of cellular LDH activity) (human monocytes): no cytotoxicity
liver injury (TNFα [3]; lipopolysaccharide-induced): suppress
lipopolysaccharide-induced TNFα release (TNFα [3]): suppress
IC50 (TNFα [2]): > 200 µM
